Data published in ChEMBL document CHEMBL1641432, “Design and synthesis of 3-pyridylacetamide derivatives as dipeptidyl peptidase IV (DPP-4) inhibitors targeting a bidentate interaction with Arg125” (Bioorg Med Chem, 2011).
Activity calls are given as the source filed them. The rule behind the calls is not given here.

Tests used:
Dipeptidyl peptidase 8 = Dipeptidyl peptidase 8 (Homo sapiens, UniProt Q6V1X1); experiment: Inhibition of human DDP8 expressed in HEK293-F cells after 90 mins by spectrophotometry; type: cell-based
Chain of Dipeptidyl peptidase 8 (Q6V1X1 whole entry): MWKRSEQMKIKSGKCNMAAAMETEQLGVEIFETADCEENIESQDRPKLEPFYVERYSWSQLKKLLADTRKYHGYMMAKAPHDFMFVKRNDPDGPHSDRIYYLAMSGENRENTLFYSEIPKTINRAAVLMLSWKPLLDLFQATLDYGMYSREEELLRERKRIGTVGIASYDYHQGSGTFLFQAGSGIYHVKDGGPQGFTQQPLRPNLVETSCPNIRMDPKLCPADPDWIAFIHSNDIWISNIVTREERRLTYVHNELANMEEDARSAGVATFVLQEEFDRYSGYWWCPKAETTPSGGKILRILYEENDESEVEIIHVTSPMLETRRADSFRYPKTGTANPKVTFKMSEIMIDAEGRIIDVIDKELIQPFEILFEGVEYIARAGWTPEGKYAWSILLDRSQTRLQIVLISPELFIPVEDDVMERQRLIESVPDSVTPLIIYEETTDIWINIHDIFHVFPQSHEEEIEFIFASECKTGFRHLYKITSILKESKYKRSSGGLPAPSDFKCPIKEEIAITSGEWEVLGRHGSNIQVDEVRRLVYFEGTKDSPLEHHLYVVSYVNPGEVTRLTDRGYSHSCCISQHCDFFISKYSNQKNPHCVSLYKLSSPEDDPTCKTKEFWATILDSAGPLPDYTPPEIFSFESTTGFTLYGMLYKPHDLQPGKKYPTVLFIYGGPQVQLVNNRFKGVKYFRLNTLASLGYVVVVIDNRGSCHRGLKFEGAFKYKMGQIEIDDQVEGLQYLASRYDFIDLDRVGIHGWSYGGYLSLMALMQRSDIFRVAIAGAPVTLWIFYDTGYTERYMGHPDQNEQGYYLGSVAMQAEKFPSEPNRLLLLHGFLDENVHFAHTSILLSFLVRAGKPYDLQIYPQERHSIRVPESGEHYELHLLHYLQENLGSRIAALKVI

Canis familiaris [1] = experiment: Ex vivo inhibition of DDP4 in dog plasma at 0.5 mg/kg, po after 24 hrs; type: functional; details: Canis lupus familiaris
[2] = Metabolic stability in rat hepatic microsomes assessed per mg of protein at 1 uM; type: ADME, Liver
[3] = Solubility of the compound at pH 1.2 after 2 hrs; type: physicochemical; details: buffer
[4] = Metabolic stability in dog hepatic microsomes assessed per mg of protein at 1 uM; type: ADME, Canis lupus familiaris, Liver
Dipeptidyl peptidase 2 = Dipeptidyl peptidase 2 (Rattus norvegicus, UniProt Q9EPB1); experiment: Inhibition of rat kidney DDP2 after 60 mins by spectrophotometry
Chain of Dipeptidyl peptidase 2 (Q9EPB1 whole entry): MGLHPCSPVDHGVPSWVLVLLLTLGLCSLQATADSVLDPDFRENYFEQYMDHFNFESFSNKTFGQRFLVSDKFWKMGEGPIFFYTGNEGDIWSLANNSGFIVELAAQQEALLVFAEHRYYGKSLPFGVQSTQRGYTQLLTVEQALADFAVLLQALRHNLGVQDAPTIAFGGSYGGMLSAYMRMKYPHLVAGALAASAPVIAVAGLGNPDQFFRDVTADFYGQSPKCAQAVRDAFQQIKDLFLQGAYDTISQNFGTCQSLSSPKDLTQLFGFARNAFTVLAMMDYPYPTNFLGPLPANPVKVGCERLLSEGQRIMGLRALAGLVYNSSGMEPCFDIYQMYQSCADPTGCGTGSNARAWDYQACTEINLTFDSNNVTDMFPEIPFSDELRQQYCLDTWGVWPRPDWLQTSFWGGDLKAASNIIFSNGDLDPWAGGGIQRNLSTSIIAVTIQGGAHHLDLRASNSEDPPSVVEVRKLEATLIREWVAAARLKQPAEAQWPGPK

[5] = Bioavailability in dog at 0.1 mg/kg, iv and 1 mg/kg, po by LC/MS/MS analysis; type: ADME, organism-based, Canis lupus familiaris; details: in vivo
[6] = Bioavailability in rat at 0.1 mg/kg, iv and 1 mg/kg, po by LC/MS/MS analysis; type: ADME, organism-based; details: in vivo
[7] = Metabolic stability in human hepatic microsomes assessed per mg of protein at 1 uM; type: ADME, Liver
[8] = Mean residence time in rat at 1 mg/kg, po by LC/MS/MS analysis; type: ADME, organism-based; design: dose 1 mg/kg, route oral; details: in vivo
[9] = Solubility of the compound at pH 6.8 after 2 hrs; type: physicochemical; details: buffer
Canis familiaris [10] = species on record: Canis familiaris; details: Canis lupus familiaris; Plasma; 0.5 mg/kg
Description: Ex vivo inhibition of DDP4 in dog plasma at 0.5 mg/kg, po up to 1 hr

[11] = Mean residence time in dog at 1 mg/kg, po by LC/MS/MS analysis; type: ADME, organism-based, Canis lupus familiaris; design: dose 1 mg/kg, route oral; details: in vivo

- IC50 (Dipeptidyl peptidase 8): > 30 µM
- Stability [2]: < 1 µL/min
- solubility at 2 h [3]: 86 µg/mL
- Stability [4]: 2 µL/min
- IC50 (Dipeptidyl peptidase 2): > 100 µM
- bioavailability [5]: 21.3%
- bioavailability [6]: 4.9%
- Stability [7]: 4 µL/min
- MRT [8]: 11.2 h
- solubility at 2 h [9]: 71 µg/mL
- MRT [11]: 4.35 h
SMILES: Cc1ccc(-c2c(CC(=O)N3CCC[C@H]3C(N)=O)c(C)nc(CC(C)C)c2CN)cc1.Cl.Cl
- inhibition in vivo at 0.5 mg/kg (Canis familiaris [1]): 90%
- inhibition (Canis familiaris [10]): Active
